From patent US20240239806A1, “COMPOUNDS, COMPOSITIONS AND METHODS OF TREATING DISORDERS” (Chengdu Anticancer Bioscience, Ltd., priority 2021, published 2024)
Where two headings read alike, the source gives them in different places.

Test system: RPEMYC^H2B-GFP cells
Test: Phenotypic screening assay (mitotic arrest, polyploidy)
Format: cell-based
Settings: 1 nM to 30 μM; for IC50: read-out: Proliferative arrest (>50%)
Protocol: We have previously developed a mechanism-informed phenotypic screening assay to identify novel antimitotic agents. Equipped with a prior understanding of the versatile functions of the chromosomal passenger protein (CPP) complex in orchestrating karyokinesis and cytokinesis, the screening assay is to score for phenotypes typically seen when the CPP complex is disabled. Specifically, the parameters for a positive hit are a temporary elevation of mitotic index (MI) at 24 hours of drug treatment and an accumulation of polyploid cells at 48 hours of drug treatment, indicative of mitotic arrest and cytokinetic failure respectively. These parameters exclude compounds that elicit only a prolonged arrest of cells in mitosis, a phenotype typically provoked by spindle toxins. The screening procedure is briefly summarized here. RPEMYC^H2B-GFP cells engineered to express a Histone 2B-EGFP fusion protein were passaged as batches of 96-well plates, 18-24 hours before exposure to the chemical compounds of the present disclosure at concentrations from 1 nM to 30 μM. At 24, 48 or 72 hours after initiation of treatment, cells were analyzed for either an arrest in mitosis or a change in DNA content by GE IN-Cell Analyzer 2000. As set forth in Table 2 below, a value of greater than or equal to 1 nM and less than or equal to 1.0 μM is marked “A”; a value greater than 1.00 μM and less than or equal to 10.0 μM is marked “B”; a value greater than 10.0 μM and less than or equal to 30.0 μM is marked “C”; and a value greater than 30.0 μM is marked “D.”

[1] = read-out: Min. Effective conc. for Polyploidy (≥5%)

| SMILES | minimal effective concentration [1] [µM] | minimal effective concentration (read-out: Mitotic Arrest (≥5%)) [µM] | IC50 [nM] |
| --- | --- | --- | --- |
| Cc1cc(Oc2ccnc3ccc(C(N)=O)cc23)cc(-n2cccn2)c1 [Compound 1, 4-(3-methyl-5-(1H-pyrazol-1-yl)phenoxy)quinoline-6-carboxamide] | 0.001 to 1 | 0.001 to 1 |  |
| NC(=O)c1ccc2nccc(Oc3cc(Cl)cc(-n4cccn4)c3)c2c1 [Compound 2, 4-(3-chloro-5-(1H-pyrazol-1-yl)phenoxy)quinoline-6-carboxamide] | > 30 | > 30 |  |
| COc1cc(Oc2ccnc3ccc(C(N)=O)cc23)cc(O[C@@H]2CCOC2)c1 [Compound 3, (R)-4-(methoxy-5-((tetrahydrofuran-3-yl)oxy)phenoxy)quinoline-6-carboxamide] | 0.001 to 1 | 0.001 to 1 |  |
| COc1cc2nccc(Oc3cc(-n4cccn4)cc(-n4cccn4)c3)c2cc1C(N)=O [Compound 4, 4-(3,5-di(1H-pyrazol-1-yl)phenoxy)-7-methoxyquinoline-6-carboxamide] | 0.001 to 1 | 0.001 to 1 |  |
| COc1cc2nccc(Oc3cc(Cl)cc(-n4cccn4)c3)c2cc1C(N)=O [Compound 5, 4-(3-chloro-5-(1H-pyrazol-1-yl)phenoxy)-7-methoxyquinoline-6-carboxamide] | 1 to 10 | 1 to 10 |  |
| COc1cc(Oc2ccnc3cc(OC)c(C(N)=O)cc23)cc(OC2CCOC2)c1 (stereo not drawn) [Compound 6, 7-methoxy-4-(3-methoxy-5-((tetrahydrofuran-3-yl)oxy)phenoxy)quinoline-6-carboxamide] | 0.001 to 1 | 0.001 to 1 |  |
| COc1cc(Oc2ccnc3ccccc23)cc(C(=O)O)c1 [Compound 9, 3-methoxy-5-(quinolin-4-yloxy) benzoic add] | > 30 | > 30 | > 30000 |
| CNC(=O)c1cc(OC)cc(Oc2ccnc3ccccc23)c1 [Compound 10, 3-methoxy-N-methyl-5-(quinolin-4-yloxy)benzamide] | 1 to 10 | 0.001 to 1 | 1000 to 10000 |
| COc1cc(Oc2ccnc3ccccc23)cc(C(F)(F)F)c1 [Compound 11] | 1 to 10 | 1 to 10 | 1000 to 10000 |
| COc1cc(Oc2ccnc3ccccc23)cc(-c2nc(C)no2)c1 [Compound 13, 5-(3-methoxy-5-(quinolin-4-yloxy)phenyl)-3-methyl-oxadiazole] | 0.001 to 1 | 0.001 to 1 | 1 to 1000 |
| COc1cc(NC(C)=O)cc(Oc2ccnc3cc(OC)c(C(N)=O)cc23)c1 [Compound 31, 4-(3-acetamido-5-methoxyphenoxy)-7-methoxyquinoline-6-carboxamide] | 0.001 to 1 | 0.001 to 1 | 1 to 1000 |
| COC(=O)c1cc(OC)cc(Oc2ncnc3sccc23)c1 [Compound 41, methyl 3-methoxy-5-(thieno[2,3-d]pyrimidin-4-yloxy)benzoate] | 0.001 to 1 | 0.001 to 1 | 1 to 1000 |
| CNC(=O)c1cc2c(Oc3cc(OC)cc(-n4cccn4)c3)ccnc2cc1OC [Compound 44, 7-Methoxy-4-(3-methoxy-5-(1H-pyrazol-1-yl)phenoxy)-N-methylquinoline-6-carboxamide] | 1 to 10 | 1 to 10 | 1000 to 10000 |
| CNC(=O)c1cc2c(Oc3cc(NC(C)=O)cc(OC)c3)ccnc2cc1OC [Compound 45, 4-(3-Acetamido-5-methoxyphenoxy)-7-methoxy-N-methylquinoline-6-carboxamide] | 1 to 10 | 1 to 10 | 1000 to 10000 |
| COC(=O)c1ccc2nccc(Oc3cc(OC)cc(-n4cccn4)c3)c2c1 [Compound 46, Methyl 4-(3-methoxy-5-(1H-pyrazol-1-yl)phenoxy)quinoline-6-carboxylate] | 0.001 to 1 | 0.001 to 1 | 1 to 1000 |
| COc1cc(OC)cc(Oc2ccnc3ccc(-c4ccco4)cc23)c1 [Compound 47, 4-(3,5-Dimethoxyphenoxy)-6-(furan-2-yl)quinoline] | 1 to 10 | 1 to 10 | 1000 to 10000 |
| COc1cc(OC)cc(Oc2ccnc3ccc(Br)cc23)c1 [Compound 48, 6-Bromo-4-(3,5-dimethoxyphenoxy) quinoline] | 0.001 to 1 | 0.001 to 1 | 1 to 1000 |
| COc1cc(Oc2ccnc3ccc(C(F)(F)F)cc23)cc(-n2cccn2)c1 [Compound 49, 4-(3-Methoxy-5-(1H-pyrazol-1-yl)phenoxy)-6-(trifluoromethyl) quinoline] | 0.001 to 1 | 0.001 to 1 | 1 to 1000 |
| COc1cc(NC(C)=O)cc(Oc2ccnc3ccc(Cl)cc23)c1 [Compound 50, N-(3-((6-chloroquinolin-4-yl)oxy)-5-methoxyphenyl) acetamide] | 0.001 to 1 | 0.001 to 1 | 1 to 1000 |
| COc1cc(Oc2ccnc3ccc(Cl)cc23)cc(-n2cccn2)c1 [Compound 51, 6-Chloro-4-(3-methoxy-5-(1H-pyrazol-1-yl)phenoxy) quinoline] | 0.001 to 1 | 0.001 to 1 | 1 to 1000 |
| COc1cc(NC(C)=O)cc(Oc2ccnc3ccc(C(=O)O)cc23)c1 [Compound 52, 4-(3-Acetamido-5-methoxyphenoxy) quinoline-6-carboxylic acid] | 10 to 30 | 1 to 10 | 10000 to 30000 |
| CNC(=O)c1ccc2nccc(Oc3cc(NC(C)=O)cc(OC)c3)c2c1 [Compound 53, 4-(3-Acetamido-5-methoxyphenoxy)-N-methylquinoline-6-carboxamide] | 0.001 to 1 | 0.001 to 1 | 1 to 1000 |
| COc1cc(OC)cc(Oc2ncnc3ccn(C)c23)c1 [Compound 54, 4-(3,5-Dimethoxyphenoxy)-5-methyl-5H-pyrrolo[3,2-d] pyrimidine] | 10 to 30 | 1 to 10 | 10000 to 30000 |
| COc1cc(NC(C)=O)cc(Oc2ccnc3ccc(C(F)(F)F)cc23)c1 [Compound 55, N-(3-Methoxy-5-((6-(trifluoromethyl)quinolin-4-yl)oxy)phenyl)acetamide] | 0.001 to 1 | 0.001 to 1 | 1 to 1000 |
| COc1cc(NC(C)=O)cc(Oc2ncnc3ccn(C)c23)c1 [Compound 56, N-(3-methoxy-5-((5-methyl-5H-pyrrolo[3,2-d]pyrimidin-4-yl)oxy)phenyl) acetamide] | 10 to 30 | 1 to 10 | 10000 to 30000 |
| CNC(=O)c1ccc2nccc(Oc3cc(OC)cc(-n4cccn4)c3)c2c1 [Compound 57, 4-(3-Methoxy-5-(1H-pyrazol-1-yl)phenoxy)-N-methylquinoline-6-carboxamide] | 0.001 to 1 | 0.001 to 1 | 1 to 1000 |
| COc1cc(NC(C)=O)cc(Oc2ccnc3ccc(C(=O)N(C)C)cc23)c1 [Compound 58, 4-(3-acetamido-5-methoxyphenoxy)-N, N-dimethylquinoline-6-carboxamide] | 1 to 10 | 1 to 10 | 1000 to 10000 |
